# From article PMC6367500, “18β-glycyrrhetyl-3-O-sulfate would be a causative agent of licorice-induced pseudoaldosteronism” (Scientific Reports, 2019)
# What was measured:
# [1] = Plasma and urine levels of GA metabolites in SD rats orally treated with GA (LC-MS/MS); assay type: in vivo; conditions: GA 0.20 g/kg orally; for concentration at 12 h: female, SD (Sprague-Dawley), rat, plasma, po, 0.2 g/kg
# Procedure: Then, bile samples were collected for 4 h (E).
# Female SD rats or EHBRs (9-week-old) were anesthetized by an intraperitoneal (i.p.) injection of urethane (1 g/kg) and their jugular veins were exposed. […] Feces were homogenized in phosphate-buffered saline (PBS; 0.15 M, pH 7.2), centrifuged (1.2 × 10^4 g, 10 min), and the supernatants were collected. After 1 week as a washout period, female SD rats were anesthetized by an i.p. injection of urethane (1 g/kg) and their biliary tract was cannulated. […] Aliquots (10 µl) of plasma, urine, homogenate of feces, or bile were mixed with 20 µl of subtilisin (0.91 U/ml) and incubated at 37 °C for 30 min, followed by the addition of 70 µl of astragaloside IV solution (1 µg/ml in ethanol containing 0.5% formic acid, used as internal standard), and kept at −20 °C for 30 min.
# [2] = Concentrations of GL metabolites in plasma of a patient with pseudoaldosteronism (LC-MS/MS); assay type: in vivo, human; conditions: for plasma concentration, day 0 / concentration at 0 day: patient with licorice-induced pseudoaldosteronism, day 0; for plasma concentration, day 5 / concentration at 5 day: 5 days after stopping the Kampo formula; for concentration at 0 day: female; for concentration at 13 day: day 13
# Source text: The patient was a person who had taken a Kampo formula containing licorice for 3 years (1.5 g of licorice for 1 year and 2 months, and 3 g for 1 year and 10 months). On day 0, we found a low plasma potassium level (2.1 mEq/l) and a high creatinine kinase level (364 U/l). Since low plasma renin activity and a low aldosterone level were also found, the patient was diagnosed with pseudoaldosteronism due to licorice. The administration of the Kampo formula was stopped and potassium supplementation of up to 100 mEq/day was started. In the plasma collected on day 0, we detected compound 3 at 8.6 µM, GA at 1.3 µM, and 2 at 87 nM, while 1, GL and 3MGA were not detected. On day 5, the plasma potassium level was still 2.1 mEq/l and potassium supplementation was continued. However, the plasma concentrations of 3 and GA had decreased to 3.6 µM and 0.65 µM, respectively. 2, 1, GL, and 3MGA were not detected. On day 13, the plasma potassium level was increased to 2.8 mEq/l, and the concentrations of 3 and GA were 61 nM and 11 nM, respectively. On day 14, the plasma potassium level was 3.4 mEq/l, and the concentration of 3 was 57 nM; GA was not detected. On day 18, the plasma potassium level had recovered to a normal level (4.9 mEq/l), so potassium supplementation was stopped.
# Female SD rats or EHBRs (9-week-old) were anesthetized by an intraperitoneal (i.p.) injection of urethane (1 g/kg) and their jugular veins were exposed. GA suspended in 0.5% CMC was then administered orally (200 mg/kg) to the unconscious rats, and blood samples were collected from the jugular vein; urine samples were collected using a metabolic cage at an appropriate time over a 12-h period. […] Feces were homogenized in phosphate-buffered saline (PBS; 0.15 M, pH 7.2), centrifuged (1.2 × 10^4 g, 10 min), and the supernatants were collected. After 1 week as a washout period, female SD rats were anesthetized by an i.p. injection of urethane (1 g/kg) and their biliary tract was cannulated. GA (0.2 mg/kg) was injected into the jugular vein, and the bile was collected every hour for 4 h. Aliquots (10 µl) of plasma, urine, homogenate of feces, or bile were mixed with 20 µl of subtilisin (0.91 U/ml) and incubated at 37 °C for 30 min, followed by the addition of 70 µl of astragaloside IV solution (1 µg/ml in ethanol containing 0.5% formic acid, used as internal standard), and kept at −20 °C for 30 min. […] The transitions (precursor to daughter) monitored and retention times were as follows: ESI(+) 743.4 to 567.5 m/z for compound 1 (5.5 min), ESI(−) 565.5 to 96.5 m/z for 2 (6.2 min), ESI(−) 549.5 to 96.5 m/z for 3 (8.1 min), ESI(+) 647.6 to 453.6 m/z for 3MGA (9.2 min), ESI(+) 471.3 to 91.0 m/z for GA (8.8 min), ESI(+) 823.5 to 453.6 m/z for GL (10.8 min), and ESI(+) 785.4 to 143.0 m/z for astragaloside IV (3.0 min). Linear regressions over the concentration range of 32 nM to 20 µM for each compound were examined using the peak-area ratio of the compounds to their internal standards and the least-squares method (r^2 > 0.98).
# The patient was a person. They provided written informed consent to the use of their blood and urine samples for this study, which was approved by the Independent Ethics Committee of Kameda General Hospital, in accordance with the Declaration of Helsinki. Their anamnesis was follows: hypertension, systemic lupus erythematosus, and antiphospholipid antibody syndrome (for 15 years), necrotic pulmonary aspergillosis (6 years ago), cerebral infarction (14 and 4 years ago, two times), and stomach cancer (3 years ago). After the operation for stomach cancer, the patient had been treated with Kracie Juzentaihoto Extract Granules for Ethical Use (Kracie Pharmaceuticals., Tokyo, Japan). […]
SMILES,amount in accumulated urine collected 12 h after oral treatment [1],"plasma concentration (below detection limit) ([2]; patient plasma sample, LC-MS/MS detection limit)","plasma concentration, day 0 [2]","plasma concentration, day 5 ([2]; patient)",time of plasma peak after oral treatment [1] [h],concentration at 12 h [1] [µM],"concentration at 0 day ([2]; human, plasma, oral) [µM]","concentration at 5 day ([2]; human, plasma, oral, patient) [µM]","concentration at 13 day ([2]; human, plasma, oral, patient) [µM]","plasma concentration, day 14 ([2]; patient, day 14)","concentration at 14 day ([2]; human, plasma, oral, patient, day 14) [µM]","plasma concentration, day 18 ([2]; patient, day 18)"
"CC1(C)[C@@H](O)CC[C@]2(C)[C@H]3C(=O)C=C4[C@@H]5C[C@@](C)(C(=O)O)CC[C@]5(C)CC[C@@]4(C)[C@]3(C)CC[C@@H]12 [GA, glycyrrhetinic acid, reference compound]",–,–,–,–,1,4.7,1.3,0.65,0.011,not detected,–,–
"CC1(C)[C@@H](OS(=O)(=O)O)CC[C@]2(C)[C@H]3C(=O)C=C4[C@@H]5C[C@@](C)(C(=O)O)C[C@H](O)[C@]5(C)CC[C@@]4(C)[C@]3(C)CC[C@@H]12 [compound 2, 22α-hydroxy-18β-glycyrrhetyl-3-O-sulfate]",below detectable levels,–,–,not detected,–,–,0.087,–,–,–,–,–
"CC1(C)[C@@H](OS(=O)(=O)O)CC[C@]2(C)[C@H]3C(=O)C=C4[C@@H]5C[C@@](C)(C(=O)O)CC[C@]5(C)CC[C@@]4(C)[C@]3(C)CC[C@@H]12 [compound 3, 18β-glycyrrhetyl-3-O-sulfate]",0.03 nmol,–,–,–,–,0.3,8.6,3.6,0.061,–,0.057,below the detectable limit

# Results, then the compound that gave them:
amount in accumulated urine collected 12 h after oral treatment [1],"plasma concentration (below detection limit) ([2]; patient plasma sample, LC-MS/MS detection limit)","plasma concentration, day 0 [2]","plasma concentration, day 5 ([2]; patient)",time of plasma peak after oral treatment [1] [h],concentration at 12 h [1] [µM],"concentration at 0 day ([2]; human, plasma, oral) [µM]","concentration at 5 day ([2]; human, plasma, oral, patient) [µM]","concentration at 13 day ([2]; human, plasma, oral, patient) [µM]","plasma concentration, day 14 ([2]; patient, day 14)","concentration at 14 day ([2]; human, plasma, oral, patient, day 14) [µM]","plasma concentration, day 18 ([2]; patient, day 18)",SMILES
below detectable levels,less than 3.2 nM,not detected,not detected,–,–,–,–,–,–,–,–,"CC1(C)[C@@H](O[C@@H]2O[C@H](C(=O)O)[C@@H](O)[C@H](O)[C@H]2O)CC[C@]2(C)[C@H]3C(=O)C=C4[C@@H]5C[C@@](C)(C(=O)O)CC[C@]5(C)CC[C@@]4(C)[C@]3(C)CC[C@@H]12 [3MGA, 3-monoglucuronyl glycyrrhetinic acid, reference compound]"
below detectable levels,–,not detected,not detected,–,–,–,–,–,–,–,–,"CC1(C)[C@@H](OS(=O)(=O)O)CC[C@]2(C)[C@H]3C(=O)C=C4[C@@H]5C[C@@](C)(C(=O)O[C@@H]6O[C@H](C(=O)O)[C@@H](O)[C@H](O)[C@H]6O)C[C@H](O)[C@]5(C)CC[C@@]4(C)[C@]3(C)CC[C@@H]12 [compound 1, 22α-hydroxy-18β-glycyrrhetyl-3-O-sulfate-30-glucuronide]"
